Here are results for 41 molecules from patent US10688093B2, “Methods, compositions, and uses of novel Fyn kinase inhibitors” (priority 2015, dated 2020).

The test deals with full-length recombinant human FYN A (Homo sapiens (Human), UniProt P06241). Description: ADP-Glo Kinase Assay of FYN kinase inhibition. The test is classed as biochemical. The following applies: primary screen, initial compounds. In short, it runs like this: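 GST-tagged full-length FYN A (baculovirus, Sf9) at 3 pg preincubated 30 min RT with compound (10-point 3-fold series from 10 μM) in Tris pH 7.5/MgCl2 buffer. 12-mer tyrosine peptide plus 12.5 pmol ATP added, 90 min RT; ADP measured by ADP-Glo luminescence, IC50 from dose-response.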
full-length recombinant human FYN A, sequence (P06241 whole entry): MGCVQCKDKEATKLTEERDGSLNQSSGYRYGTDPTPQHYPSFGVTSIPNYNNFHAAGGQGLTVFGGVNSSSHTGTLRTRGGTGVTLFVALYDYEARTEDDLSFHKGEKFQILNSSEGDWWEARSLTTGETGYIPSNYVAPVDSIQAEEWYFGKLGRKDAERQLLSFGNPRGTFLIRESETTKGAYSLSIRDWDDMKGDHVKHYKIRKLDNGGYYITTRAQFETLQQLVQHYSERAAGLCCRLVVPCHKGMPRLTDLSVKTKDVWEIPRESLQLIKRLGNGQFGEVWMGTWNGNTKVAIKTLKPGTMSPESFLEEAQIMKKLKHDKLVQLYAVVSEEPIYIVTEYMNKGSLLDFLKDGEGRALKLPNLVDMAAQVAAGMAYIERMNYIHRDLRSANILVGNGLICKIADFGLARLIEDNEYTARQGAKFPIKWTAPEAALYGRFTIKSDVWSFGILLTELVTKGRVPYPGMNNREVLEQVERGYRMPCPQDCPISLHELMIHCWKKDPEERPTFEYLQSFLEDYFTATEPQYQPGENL
For orientation: ADP-Glo first removes unused ATP, then detects ADP through luciferase.

In the case of `c1cncc(-c2n[nH]c3nccc(-c4ccoc4)c23)c1` [Compound 518, 4-(3-furyl)-3-(3-pyridyl)-1H-pyrazolo[3,4-b]pyridine], the IC50 (commonly the concentration that inhibits the measured activity by half) stood at 14.3 µM.

For `COc1cc(-c2n[nH]c3nccc(-c4ccc(CO)cc4)c23)cc(OC)c1OC` [Compound 519, [4-[3-(3,4,5-trimethoxy-phenyl)-1H-pyrazolo[3,4-b]pyridin-4-yl]phenyl] methanol], the half-maximal inhibitory concentration (IC50) amounted to 5.38 µM.

On to `COc1cccc(-c2ccnc3[nH]nc(C4CCNCC4)c23)c1` [Compound 520, 4-(3-methoxyphenyl)-3-(4-piperidyl)-1H-pyrazolo[3,4-b]pyridine], for which the IC50 was found to be 17.6 µM.

For `COc1ccccc1-c1n[nH]c2nccc(-c3ccc(C#N)cc3)c12` [Compound 521, 4-[3-(2-methoxyphenyl)-1H-pyrazolo[3,4-b]pyridin-4-yl]benzonitrile], the IC50 was 1.58 µM.

As to `COc1cc(-c2n[nH]c3nccc(-c4ccc(C(=O)N(C)C)cc4)c23)cc(OC)c1OC` [Compound 522, N,N-dimethyl-4-[3-(3,4,5-trimethoxy-phenyl)-1H-pyrazolo[3,4-b]pyridin-4-yl]benzamide], the IC50 worked out at 11.1 µM.

`OCc1ccc(-c2ccnc3[nH]nc(-c4ccc5c(c4)OCO5)c23)cc1` [Compound 523, [4-[3-(1,3-benzodioxol-5-yl)-1H-pyrazolo[3,4-b]pyridin-4-yl]phenyl] methanol]: the IC50 was 4.64 µM.

For the molecule `COc1ccc(F)cc1-c1ccnc2[nH]nc(C3CCNCC3)c12` [Compound 524, 4-(5-fluoro-2-methoxy-phenyl)-3-(4-piperidyl)-1H-pyrazolo[3,4-b]pyridine], the IC50 amounted to 11.7 µM.

`COc1cc(-c2n[nH]c3nccc(-c4ccc(S(C)(=O)=O)cc4)c23)cc(OC)c1OC` [Compound 525, 4-(4-methylsulfonyl-phenyl)-3-(3,4,5-trimethoxy-phenyl)-1H-pyrazolo[3,4-b]pyridlne]: the IC50 was found to be 11.2 µM.

With `OCc1ccc(-c2ccnc3[nH]nc(-c4cccc(Cl)c4)c23)cc1` [Compound 526, [4-[3-(3-chlorophenyl)-1H-pyrazolo[3,4-b]pyridin-4-yl]phenyl] methanol], the IC50 worked out at 6.5 µM.

For the molecule `OCc1cccc(-c2ccnc3[nH]nc(-c4ccc5c(c4)OCO5)c23)c1` [Compound 527, [3-[3-(1,3-benzodioxol-5-yl)-1H-pyrazolo[3,4-b]pyridin-4-yl]phenyl] methanol], the IC50 amounted to 3.09 µM.

For the molecule `c1ccc(-c2n[nH]c3nccc(-c4ccoc4)c23)cc1` [Compound 528, 4-(3-furyl)-3-phenyl-1H-pyrazolo[3,4-b]pyridine], the IC50 stood at 8.63 µM.

Regarding `COc1ccc(-c2ccnc3[nH]nc(-c4cc(OC)c(OC)c(OC)c4)c23)cn1` [Compound 529, 4-(6-methoxy-3-pyridyl)-3-(3,4,5-trimethoxy-phenyl)-1H-pyrazolo[3,4-b]pyridine], the IC50 amounted to 16.9 µM.

Turning to `c1coc(-c2ccnc3[nH]nc(C4CC4)c23)c1` [Compound 530, 3-cyclopropyl-4-(2-furyl)-1H-pyrazolo[3,4-b]pyridine], the IC50 is 12.6 µM.

As for `COc1ccccc1-c1n[nH]c2nccc(-c3ccco3)c12` [Compound 531, 4-(2-furyl)-3-(2-methoxyphenyl)-1H-pyrazolo[3,4-b]pyridine], the IC50 worked out at 2.28 µM.

With `COc1ccccc1-c1n[nH]c2nccc(-c3ccc(CO)cc3)c12` [Compound 532, [4-[3-(2-methoxyphenyl)-1H-pyrazolo[3,4-b]pyridin-4-yl]phenyl] methanol], the IC50 came out at 1.1 µM.

For `COc1ccccc1-c1n[nH]c2nccc(-c3cccc(C(C)=O)c3)c12` [Compound 533, 1-[3-[3-(2-methoxyphenyl)-1H-pyrazolo[3,4-b]pyridin-4-yl]phenyl] ethanone], the IC50 amounted to 6.6 µM.

On to `c1cc(-c2n[nH]c3nccc(-c4ccoc4)c23)ccn1` [Compound 534, 4-(3-furyl)-3-(4-pyridyl)-1H-pyrazolo[3,4-b]pyridine], for which the IC50 came out at 20.2 µM.

For the molecule `Nc1cccc(-c2ccnc3[nH]nc(-c4cccc(F)c4)c23)c1` [Compound 535, 3-[3-(3-fluorophenyl)-1H-pyrazolo[3,4-b]pyridin-4-yl]aniline], the IC50 is 15.1 µM.

With `NC(=O)c1cccc(-c2ccnc3[nH]nc(-c4ccccc4)c23)c1` [Compound 536, 3-(3-phenyl-1H-pyrazolo[3,4-b]pyridin-4-yl)benzamide], the IC50 came to 11.7 µM.

With `COc1cc(-c2n[nH]c3nccc(-c4cccc(N)c4)c23)cc(OC)c1OC` [Compound 537, 3-[3-(3,4,5-trimethoxy-phenyl)-1H-pyrazolo[3,4-b]pyridin-4-yl]aniline], the IC50 was found to be 14.8 µM.

For `COc1cc(-c2n[nH]c3nccc(-c4cccc(F)c4)c23)cc(OC)c1OC` [Compound 538, 4-(3-fluorophenyl)-3-(3,4,5-trimethoxy-phenyl)-1H-pyrazolo[3,4-b]pyridine], the IC50 was found to be 5.23 µM.

With `O=C(O)/C=C/c1cccc(-c2cnn3ccc(NCc4cccnc4)nc23)c1` [Compound 539, (E)-3-[3-[5-(3-pyridylmethyl-amino)pyrazolo [1,5-a]pyrimidin-3-yl]phenyl]prop-2-enoic acid], the half-inhibitory concentration (IC50) came out at 2.27 µM.

For `COc1cc(-c2cc(-c3cccc(C(N)=O)c3)cnc2N)cc(OC)c1OC` [Compound 540, 3-[6-amino-5-(3,4,5-trimethoxy-phenyl)-3-pyridyl] benzamide], the IC50 came to 0.442 µM.

For the molecule `CC(=O)c1ccc(-c2cnc(N)c(-c3cccc(N(C)C)c3)c2)s1` [Compound 541, 1-[5-[6-amino-5-[3-(dimethyl-amino)phenyl]-3-pyridyl]-2-thienyl]ethanone], the IC50 was 3.42 µM.

Consider `CNc1ccc2ncc(/C=C\CCCO)n2n1` [Compound 542, (Z)-5-[6-(methylamino)imidazo[1,2-b]pyridazin-3-yl]pent-4-en-1-ol], for which the IC50 was 31.5 µM.

In the case of `COc1cc(-c2cnc3sc(NCC4CCOCC4)nn23)ccc1O` [Compound 543, 2-methoxy-4-[2-(tetrahydropyran-4-ylmethyl-amino)imidazo [2,1-b][1,3,4]thiadiazo-5-yl]phenol], the IC50 was 2.16 µM.

`COc1ccc(-c2cnc3c(NC(C)=O)cc(-c4cccc(NC(C)=O)c4)cn23)cc1OC` [Compound 544, N-[3-[8-acetamido-3-(3,4-dimethoxy-phenyl)imidazo [1,2-a]pyridin-6-yl]phenyl] acetamide]: the IC50 was 1.6 µM.

`COc1cccc(-c2cc(NC(C)=O)c3ncc(-c4cccc(C(C)=O)c4)n3c2)c1` [Compound 545, N-[3-(3-acetylphenyl)-6-[3-methoxy-phenyl)imidazo [1,2-a]pyridin-8-yl]acetamide]: the IC50 was 3.05 µM.

As for `COc1cncc(-c2cnc3sc(NCc4ccncc4)nn23)c1` [Compound 546, 5-(5-methoxy-3-pyridyl)-N-(4-pyridylmethyl) imidazo[2,1-b][1,3,4] thiadiazol-2-amine], the IC50 came to 0.932 µM.

Turning to `OC1CCC(Nc2nn3c(-c4ccc(F)c(Cl)c4)cnc3s2)CC1` (centres unmarked) [Compound 547, 4-[[5-(3-chloro-4-fluoro-phenyl)imidazo [2,1-b][1,3,4]thiadiazol-2-yl]amino] cyclohexanol], the half-inhibitory concentration (IC50) was 4.06 µM.

With `COc1ccc(-c2cnc3sc(NCCc4ccc(S(N)(=O)=O)cc4)nn23)cc1OC` [Compound 548, 4-[2-[[5-(3,4-dimethoxyphenyl)imidazo[2,1-b] [1,3,4]thiadiazol-2-yl]amino]ethyl]benzene-sulfonamide], the IC50 was determined as 5.12 µM.

For the molecule `COc1ccc(-c2cc(NC(C)=O)c3ncc(-c4cccc(C(C)=O)c4)n3c2)c(OC)c1` [Compound 549, N-[3-(3-acetylphenyl)-6-(2,4-dimethoxy-phenyl)imidazo [1,2-a]pyridin-8-yl]acetamide], the IC50 is 2.5 µM.

As to `COc1ccc(-c2cnc3sc(NCCc4ccncc4)nn23)cc1OC` [Compound 550, 5-(3,4-dimethoxy-phenyl)-N-[2-(4-pyridyl)ethyl]imidazo [2,1-b][1,3,4] thiadiazol-2-amine], the IC50 is 3.14 µM.

Regarding `c1cc(CNc2nn3c(-c4ccncc4)cnc3s2)ccn1` [Compound 551, 5-(4-pyridyl)-N-(4-pyridylmethyl) imidazo[2,1-b] [1,3,4]thiadiazol-2-amine], the IC50 was 2.65 µM.

Turning to `COc1ccc(-c2cnc3sc(NCCc4ccncc4)nn23)cn1` [Compound 552, 5-(6-methoxy-3-pyridyl)-N-[2-(4-pyridyl)ethyl] imidazo[2,1-b] [1,3,4]thiadiazol-2-amine], the IC50 came out at 2.03 µM.

Consider `NS(=O)(=O)c1ccc(CCNc2nn3c(-c4cccnc4)cnc3s2)cc1` [Compound 553, 4-[2-[[5-(3-pyridyl)imidazo [2,1-d][1,3,4]thiadiazol-2-yl]amino]ethyl] benzene-sulfonamide], for which the IC50 stood at 1.88 µM.

Regarding `c1csc(CNc2nn3c(-c4ccc(N5CCOCC5)cc4)cnc3s2)c1` [Compound 554, 5-(4-morpholino-phenyl)-N-(2-thienylmethyl) imidazo[2,1-b] [1,3,4]thiadiazol-2-amine], the half-maximal inhibitory concentration (IC50) was determined as 3.82 µM.

Consider `COc1ccc(CNc2nn3c(-c4ccc(CO)cc4)cnc3s2)cc1` [Compound 555, [4-[2-[(4-methoxyphenyl)methylamino]imidazo[2,1-b] [1,3,4]thiadiazol-5-yl]phenyl] methanol], for which the IC50 was 2.81 µM.

With `Clc1ccc(-c2cnc3sc(NCc4cccnc4)nn23)cc1` [Compound 556, 5-(4-chlorophenyl)-N-(3-pyridylmethyl) imidazo[2,1-b] [1,3,4]thiadiazol-2-amine], the 50% inhibitory concentration (IC50) was found to be 3.66 µM.

For the molecule `CC(=O)Nc1cccc(-c2cnc3sc(NCCc4ccncc4)nn23)c1` [Compound 557, N-[3-[2-[2-(4-pyridyl)ethyl-amino]imidazo [2,1-b][1,3,4]thiadiazol-5-yl]phenyl] acetamide], the IC50 came out at 1.32 µM.

Consider `CN(C)C(=O)c1cccc(-c2cnc3sc(NCCc4ccncc4)nn23)c1` [Compound 558, N,N-dimethyl-3-[2-[2-(4-pyridyl)ethyl-amino]imidazo [2,1-b][1,3,4]thiadiazol-5-yl]benzamide], for which the IC50 came to 0.721 µM.
